In patent US20240299400A1, “Transcription Factor GLI1 Inhibitors and Uses Thereof” (University of Connecticut, priority 2023, published 2024):

Assays:
GLI1 mRNA expression [1] = assay: RT-qPCR GLI1 mRNA expression in Sufu-KO MEFs; format: cell-based, mouse; settings: for IC50: Mus musculus, Ave ± SEM, read-out: RT-qPCR, IC50 Sufu-KO
Experimental: (§1) ASZ001 and Sufu-KO cells were seeded in 96-well plates (10,000/well, 100 μL) and incubated overnight under growth conditions. On the second day, ‘growth’ media was removed and replaced by ‘assay’ media (100 μL). On the third day, cells were treated with a serial dilution of drugs or DMSO for 48 h. mRNA expression was determined through Taqman Fast Cells-to-CT Kit (#4399003) per the manufacturer's instructions. In brief, cells were washed with chilled PBS, then mixed with lysis solution containing DNase I and incubated at RT for 5 min. Stop solution was then added to quench the lysis reagents. cDNA was then synthesized through a BioRad MyCycler following addition of reverse transcriptase. Finally, the cDNA was amplified through an ABI 7500 system following addition of Taqman Fast Universal PCR Master Mix and Taqman Gene Expression Primer. Relative gene expression levels were computed by the ΔΔCt method. Values represent mRNA expression relative to DMSO control (set at 1.0). Data were analyzed using GraphPad Prism, and IC50 values are the mean±SEM for at least two separate experiments performed in triplicate. Primers used are as follows: mouse ActB (Mm00607939_s1); mouse GLI1 (Mm00494645_ml); mouse Gli2 (Mm01293117_ml); mouse Ptch1 (Mm00436026_ml); mouse Hhip (Mm00469580_ml).

GLI1 mRNA expression [2] = assay: RT-qPCR GLI1 mRNA expression in ASZ001 BCC cells; format: cell-based, mouse; settings: Mus musculus, Ave ± SEM, read-out: RT-qPCR, IC50 ASZ001
Experimental: as §1

ASZ001 cells = assay: MTS anti-proliferative assay in ASZ001 cells; format: cell-based, murine; settings: Mus musculus, ASZ001, Ave ± SEM
Experimental: (§2) Cell viability was assessed by MTS proliferation assay kit (Promega) per manufacturer's protocol. Briefly, 2×10^4 cells were plated in a 96-well plate in 100 μL growth medium to make the cell population at ˜80% confluence. After 24 h, 1 μL drug solution was added to each well. DMSO was used as vehicle compound. After 48 h incubation (37° C., 5% CO2), 20 μL of freshly prepared 3-(4,5-dimethylthiazol-2-yl)-5-(3-carboxymethoxyphenyl)-2-(4-sulfophenyl)-2H-tetrazolium (MTS)/phenazine methosulfate (PMS) solution was added to each well, and the plate was returned to the incubator for 1 h. Absorbance at 490 nm was recorded, and the result was analyzed by GraphPad Prism 5. GI50 values represent mean±SEM for at least two separate experiments performed in triplicate.

DAOY (MB) = assay: MTS anti-proliferative assay in DAOY cells; format: cell-based; settings: Homo sapiens, Daoy; Table 8, 48 h, mean ± SEM
Experimental: as §2

PANC-1 (pancreatic) = assay: MTS anti-proliferative assay in PANC-1 cells; format: cell-based; settings: Homo sapiens, PANC-1; Table 8, 48 h, mean ± SEM
Experimental: as §2

GLI1-ZFD = target: T1, GLI1-ZFD (Homo sapiens, UniProt P08151); assay: Microscale thermophoresis (MST) binding to GLI1-ZFD; settings: for binding to GLI1 (in words): MST binding assay
T1 construct: GLI1-ZFD Expression and Purification; made in house
T1 sequence (P08151 234-388 limits assumed): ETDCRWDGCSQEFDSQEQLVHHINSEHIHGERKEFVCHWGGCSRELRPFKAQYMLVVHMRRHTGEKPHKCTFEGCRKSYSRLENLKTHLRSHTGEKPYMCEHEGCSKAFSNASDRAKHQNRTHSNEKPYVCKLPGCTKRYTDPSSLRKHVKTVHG
Experimental: The protein expression and purification experiments followed the previous reported procedures [C. A. Maschinot, et al., Synthesis and evaluation of third generation vitamin D3 analogues as inhibitors of hedgehog signaling. Euro. J. Med. Chem. 162 (2019) 495-506].
GLI1 protein labeling was performed through the Monolith Protein Labeling Kit RED-NHS 2nd Generation (Nanotemper #MO-LO11) per the manufacturer's instructions. Briefly, GLI1 (100 μg, 1 mg/mL) underwent buffer exchange to remove incompatible ingredients like Tris or DTT. Proteins in the Labeling Buffer were incubated with freshly prepared dye (˜3-fold excess of dye) for 30 min at RT in the dark. Unreacted ‘free’ dye was removed by a gel-filtration column. Protein concentration and degree-of-labeling were calculated by measuring absorption at 280 nm and 650 nm. For each assay, 200 nM GLI1 in MST Buffer was mixed with compound dilution in DMSO (DMSO<5%, v/v). The mixture was then loaded to a capillary and the thermophoresis was subsequently determined through Monolith NT.115 station. Results were analyzed by MO.Affinity Analysis software and visualized by Graphpad Prism. MST Buffer: 50 mM HEPES, pH 8.3, 100 mM NaCl.

IC50 (GLI1 mRNA expression [1]; Table 7, GLI1 mRNA) [µM] | IC50 (GLI1 mRNA expression [2]; ASZ001, Table 7, GLI1 mRNA) [µM] | SMILES | GI50 (ASZ001 cells; Table 7, 48 h) [µM] | further results
1.7 ± 0.3 | 10.5 ± 3.2 | Cc1ccc2ccc(C(Nc3ccccn3)c3ccc(-n4ccc5ccccc54)cc3)c(O)c2n1 (stereo not shown) [Compound 47, 7-((4-(1H-indol-1-yl)phenyl)(pyridin-2-ylamino)methyl)-2-methylquinolin-8-ol] | 62.3 ± 13.5 | –
1.1 ± 0.4 | 14.2 ± 2.4 | Cc1ccc2ccc(C(Nc3ccccn3)c3ccc(-n4cccc4)cc3)c(O)c2n1 (stereo not shown) [Compound 49, 7-((4-(1H-Pyrrol-1-yl)phenyl)(pyridin-2-ylamino)methyl)-2-methylquinolin-8-ol] | 91.7 ± 21 | Kd (GLI1-ZFD; Table 7, Ave ± SEM): 28.5 ± 7.2 µM; GI50 (PANC-1 (pancreatic)): > 100 µM
3.8 ± 0.7 | > 25 | Cc1ccc2ccc(C(Nc3ccccn3)c3ccc(-n4ccnc4)cc3)c(O)c2n1 (stereo not shown) [Compound 50, 7-((4-(1H-Imidazol-1-yl)phenyl)(pyridin-2-ylamino)methyl)-2-methylquinolin-8-ol] | > 100 | Kd (GLI1-ZFD; Table 7, Ave ± SEM): 18.8 ± 5.2 µM
13.6 ± 3.5 | 5.3 ± 1.2 | Cc1ccc2ccc(C(Nc3ccccn3)c3ccc(-n4ccnc4C)cc3)c(O)c2n1 (stereo not shown) [Compound 51, 7-((4-(2-Methyl-1H-imidazol-1-yl)phenyl)(pyridin-2-ylamino)methyl)-2-methylquinolin-8-ol] | > 100 | –
1.5 ± 0.3 | 2.7 ± 0.9 | Cc1ccc2ccc(C(Nc3ccccn3)c3ccc(-n4cccn4)cc3)c(O)c2n1 (stereo not shown) [Compound 52, 7-((4-(1H-Pyrazol-1-yl)phenyl)(pyridin-2-ylamino)methyl)-2-methylquinolin-8-ol] | 37.2 ± 4.8 | Kd (GLI1-ZFD; Table 7, Ave ± SEM): 10.5 ± 4.4 µM
> 25 | 0.77 ± 0.03 | COc1c(C(Nc2ccccn2)c2ccc(N3CCCC3=O)cc2)ccc2ccc(C)nc12 (stereo not shown) [Compound 53, 1-(4-((8-Methoxy-2-methylquinolin-7-yl)(pyridin-2-ylamino)methyl)phenyl)pyrrolidin-2-one] | 42.9 ± 12.2 | –

Second part, the compound before the results:

SMILES | IC50 (GLI1 mRNA expression [1]; Table 7, GLI1 mRNA) [µM] | IC50 (GLI1 mRNA expression [2]; ASZ001, Table 7, GLI1 mRNA) [µM] | GI50 (ASZ001 cells; Table 7, 48 h) [µM] | further results
CCN(CC)c1ccc(C(Nc2ccccn2)c2ccc3cccnc3c2O)cc1 (stereo not shown) [Compound 15, 7-((4-Diethylaminophenyl)(pyridin-2-ylamino)methyl)quinolin-8-ol] | – | – | – | IC50 (GLI1 mRNA expression [1]; Table 5, GLI1 mRNA): 1.1 ± 0.3 µM; IC50 (GLI1 mRNA expression [2]; ASZ001, Table 5, GLI1 mRNA): 1.4 ± 0.4 µM; GI50 (ASZ001 cells; Table 5, 48 h): 12.2 ± 2 µM; GI50 (DAOY (MB)): 8.2 ± 1.6 µM; GI50 (PANC-1 (pancreatic)): 10 ± 1.1 µM
CCN(CC)c1ccc(C(Nc2ccccn2)c2ccccc2O)cc1 (stereo not shown) [Compound 18, 2-((4-Diethylaminophenyl)(pyridin-2-ylamino)methyl)phenol] | – | – | – | IC50 (GLI1 mRNA expression [1]; Table 5, GLI1 mRNA): > 25 µM; IC50 (GLI1 mRNA expression [2]; ASZ001, Table 5, GLI1 mRNA): 15.2 ± 5 µM; Kd (GLI1-ZFD; Table 5, Ave ± SEM): > 125 µM; GI50 (ASZ001 cells; Table 5, 48 h): > 100 µM; GI50 (PANC-1 (pancreatic)): > 100 µM
CCN(CC)c1ccc(C(Nc2ccccn2)c2ccc3ccc(C)nc3c2OC2CCCC2)cc1 (stereo not shown) [Compound 22, N-((4-Diethylaminophenyl)(8-cyclopentyloxy-2-methylquinolin-7-yl)methyl)pyridin-2-amine] | – | – | – | anti-GLI1 activity in Sufu-KO cells (in words) (GLI1 mRNA expression [1]): inactive; IC50 (GLI1 mRNA expression [1]; Table 5, GLI1 mRNA): > 25 µM; IC50 (GLI1 mRNA expression [2]; ASZ001, Table 5, GLI1 mRNA): 0.54 µM; binding to GLI1 (in words) (GLI1-ZFD): did not bind to GLI1; GI50 (ASZ001 cells; Table 5, 48 h): > 100 µM
CCN(CC)c1ccc(C(NC)c2cc(C)c3ccc(C)nc3c2O)cc1 (stereo not shown) [Compound 29, 7-((4-(Diethylamino)phenyl)(methylamino)methyl)-2,5-dimethylquinolin-8-ol] | – | – | – | IC50 (GLI1 mRNA expression [1]; Table 6, GLI1 mRNA): > 25 µM; IC50 (GLI1 mRNA expression [2]; ASZ001, Table 6, GLI1 mRNA): 15.4 ± 2.2 µM; GI50 (ASZ001 cells; Table 6, 48 h): > 100 µM
CCN(CC)c1ccc(C(Nc2cccnc2)c2ccc3ccc(C)nc3c2O)cc1 (stereo not shown) [Compound 30, 7-((4-(diethylamino)phenyl)(pyridin-3-ylamino)methyl)-2-methylquinolin-8-ol] | – | – | – | IC50 (GLI1 mRNA expression [1]; Table 6, GLI1 mRNA): 4.4 ± 1.9 µM; IC50 (GLI1 mRNA expression [2]; ASZ001, Table 6, GLI1 mRNA): 2.5 ± 0.8 µM; GI50 (ASZ001 cells; Table 6, 48 h): 81.4 ± 10.7 µM
CCN(CC)c1ccc(C(Nc2ccncc2)c2ccc3ccc(C)nc3c2O)cc1 (stereo not shown) [Compound 31, 7-((4-(diethylamino)phenyl)(pyridin-4-ylamino)methyl)-2-methylquinolin-8-ol] | – | – | – | IC50 (GLI1 mRNA expression [1]; Table 6, GLI1 mRNA): > 25 µM; IC50 (GLI1 mRNA expression [2]; ASZ001, Table 6, GLI1 mRNA): 21.4 ± 6.7 µM; GI50 (ASZ001 cells; Table 6, 48 h): > 100 µM
Cc1ccc2c(C)cc(C(C)Nc3ccccn3)c(O)c2n1 (stereo not shown) [Compound 32, 2,5-Dimethyl-7-(1-(pyridin-2-ylamino)ethyl)quinolin-8-ol] | 4.8 ± 1.4 | 5.3 ± 1.7 | 29.8 ± 4 | –
Cc1ccc2c(C)cc(C(C)Nc3ccccc3)c(O)c2n1 (stereo not shown) [Compound 33, 2,5-Dimethyl-7-(1-(phenylamino)ethyl)quinolin-8-ol] | 8.8 ± 2.7 | 7.1 ± 2 | 29.5 ± 5.1 | GI50 (PANC-1 (pancreatic)): 56.3 ± 9.4 µM
CCN(CC)c1ccccc1C(Nc1ccccn1)c1ccc2ccc(C)nc2c1O (stereo not shown) [Compound 35, 7-((2-Diethylaminophenyl)(pyridin-2-ylamino)methyl)-2-methylquinolin-8-ol] | 9 ± 2.2 | 15.8 ± 6.3 | 29.3 ± 4.9 | binding to GLI1 (in words) (GLI1-ZFD): do not bind GLI1; Kd (GLI1-ZFD; Table 7, Ave ± SEM): > 125 µM
CCN(CC)c1cccc(C(Nc2ccccn2)c2ccc3ccc(C)nc3c2O)c1 (stereo not shown) [Compound 36, 7-((3-Diethylaminophenyl)(pyridin-2-ylamino)methyl)-2-methylquinolin-8-ol] | 5.6 ± 1.5 | 15.1 ± 4.1 | 82.5 ± 20.3 | –
Cc1ccc2ccc(C(Nc3ccccn3)c3cccc(F)c3)c(O)c2n1 (stereo not shown) [Compound 37, 7-((3-Fluorophenyl)(pyridin-2-ylamino)methyl)-2-methylquinolin-8-ol] | 5.3 ± 1.3 | 19.2 ± 5.5 | 33.1 ± 9.1 | –
CCNc1cccc(C(Nc2ccccn2)c2ccc3ccc(C)nc3c2O)c1 (stereo not shown) [Compound 38, 7-((3-Ethylaminophenyl)(pyridin-2-ylamino)methyl)-2-methylquinolin-8-ol] | 10.6 ± 2.6 | 19.3 ± 5 | > 100 | –
Cc1ccc2ccc(C(Nc3ccccn3)c3ccc([N+](=O)[O-])cc3)c(O)c2n1 (stereo not shown) [Compound 40, 7-((4-Nitrophenyl)(pyridin-2-ylamino)methyl)-2-methylquinolin-8-ol] | 5.6 ± 0.9 | 17.3 ± 6.1 | 61.8 ± 27.5 | GI50 (DAOY (MB)): 75.2 ± 17.4 µM; GI50 (PANC-1 (pancreatic)): > 100 µM
Cc1ccc2ccc(C(Nc3ccccn3)c3ccc(N)cc3)c(O)c2n1 (stereo not shown) [Compound 41, 7-((4-Aminophenyl)(pyridin-2-ylamino)methyl)-2-methylquinolin-8-ol] | 3.5 ± 1 | 9.8 ± 1.3 | > 100 | –
Cc1ccc2ccc(C(Nc3ccccn3)c3ccc(N4CCc5ccccc54)cc3)c(O)c2n1 (stereo not shown) [Compound 46, 7-((4-(Indolin-1-yl)phenyl)(pyridin-2-ylamino)methyl)-2-methylquinolin-8-ol] | 4.3 ± 0.8 | 15.4 ± 4.7 | 67.9 ± 12.8 | –
CS(=O)(=O)c1ccc(C(=O)Nc2ccc(Cl)c(-c3ccccn3)c2)c(Cl)c1 [GDC-0449, reference compound] | – | – | – | IC50 (GLI1 mRNA expression [1]; Table 5, GLI1 mRNA): > 25 µM; IC50 (GLI1 mRNA expression [2]; ASZ001, Table 5, GLI1 mRNA): 0.04 ± 0.01 µM; GI50 (ASZ001 cells; Table 5, 48 h): 73.6 ± 13.7 µM; GI50 (PANC-1 (pancreatic)): 80.7 ± 14.2 µM
